According to patent publication US7790751B2, “Azinyl-3-sulfonylindazole derivatives as 5-hydroxytryptamine-6 ligands” (Wyeth LLC, priority 2005, dated 2010):
pKi: −log10 of the molar value. Structures can show the parent of a compound that is named as a salt.

Tested on: not given
Experiment: not given

SMILES	melting point
O=S(=O)(c1cccc2ccccc12)c1n[nH]c2ccc(OC3CCNC3)cc12 (stereo not drawn) (as salt: hydrochloride) [Example 1, 3-(Naphthalene-1-sulfonyl)-5-(pyrrolidin-3-yloxy)-1H-indazole]	168 to 170 °C (dec.)
CN1CCC(Oc2ccc3[nH]nc(S(=O)(=O)c4cccc5ccccc45)c3c2)CC1 (as salt: hydrochloride) [Example 21, 5-(1-Methylpiperidin-4-yloxy)-3-(1-naphthylsulfonyl)-1H-indazole Hydrochloride]	252 to 254 °C
O=S(=O)(c1cccc2ccccc12)c1n[nH]c2ccc(OCC3CCCNC3)cc12 (stereo not drawn) [Example 28, 3-(1-Naphthylsulfonyl)-5-(piperidin-3-ylmethoxy)-1H-indazole]	168 to 170 °C
O=S(=O)(c1cccc2ccccc12)c1n[nH]c2ccc(OC3CCCNC3)cc12 (stereo not drawn) [Example 29, 3-(1-Naphthylsulfonyl)-5-(piperidin-3-yloxy)-1H-indazole]	178 to 180 °C

Results, then the compound that gave them:

melting point	SMILES
174 to 176 °C (dec.)	O=S(=O)(c1cccc2ccccc12)c1n[nH]c2ccc(OC3CCNCC3)cc12 (as salt: hydrochloride) [Example 6, 3-(1-Naphthylsulfonyl)-5-(piperidin-4-yloxy)-1H-indazole Hydrochloride]
175 to 177 °C	O=S(=O)(c1cccc2ccccc12)c1n[nH]c2ccc(OCC3CCNCC3)cc12 [Example 27, 3-(1-naphthylsulfonyl)-5-(piperidin-4-ylmethoxy)-1H-indazole]

Target: human cloned 5-HT6 receptors (Homo sapiens, UniProt P50406)
Experiment: Evaluation of 5-HT6 binding affinity of test compounds ([3H]-LSD displacement)

Sequence of human cloned 5-HT6 receptors (P50406 whole entry): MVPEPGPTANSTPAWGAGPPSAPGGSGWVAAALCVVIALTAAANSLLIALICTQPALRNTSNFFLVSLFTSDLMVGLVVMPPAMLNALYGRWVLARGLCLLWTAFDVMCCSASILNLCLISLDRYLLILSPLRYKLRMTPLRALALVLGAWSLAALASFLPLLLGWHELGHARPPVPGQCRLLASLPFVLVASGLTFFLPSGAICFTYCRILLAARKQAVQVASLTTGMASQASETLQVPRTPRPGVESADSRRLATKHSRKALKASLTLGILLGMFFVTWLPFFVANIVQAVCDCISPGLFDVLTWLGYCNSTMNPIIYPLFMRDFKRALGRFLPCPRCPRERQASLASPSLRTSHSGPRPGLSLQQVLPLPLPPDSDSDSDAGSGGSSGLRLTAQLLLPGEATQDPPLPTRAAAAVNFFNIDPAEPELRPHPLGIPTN

SMILES	pKi
O=S(=O)(c1cccc2ccccc12)c1n[nH]c2ccc(OCC3CCCNC3)cc12 (stereo not drawn) [Example 28, 3-(1-Naphthylsulfonyl)-5-(piperidin-3-ylmethoxy)-1H-indazole]	8.00 to 11.00
O=S(=O)(c1cccc2ccccc12)c1n[nH]c2ccc(OC3CCCNC3)cc12 (stereo not drawn) [Example 29, 3-(1-Naphthylsulfonyl)-5-(piperidin-3-yloxy)-1H-indazole]	8.00 to 11.00
O=S(=O)(c1cccc(Cl)c1)c1n[nH]c2ccc(NC3CCNCC3)cc12 [Example 42, 3-[(3-chlorophenyl)sulfonyl]-N-piperidin-4-yl-1H-indazol-5-amine]	8.00 to 11.00
O=S(=O)(c1ccc(Cl)cc1)c1n[nH]c2ccc(NC3CCNCC3)cc12 [Example 43, 3-[(4-chlorophenyl)sulfonyl]-N-piperidin-4-yl-1H-indazol-5-amine]	8.00 to 11.00
O=S(=O)(c1ccc2ccccc2c1)c1n[nH]c2ccc(NC3CCNCC3)cc12 [Example 44, 3-(2-naphthylsulfonyl)-N-piperidin-4-yl-1H-indazol-5-amine]	8.00 to 11.00
O=S(=O)(c1cccc(F)c1)c1n[nH]c2ccc(NC3CCNCC3)cc12 [Example 45, 3-[(3-fluorophenyl)sulfonyl]-N-piperidin-4-yl-1H-indazol-5-amine]	8.00 to 11.00
O=S(=O)(c1ccc(F)cc1)c1n[nH]c2ccc(NC3CCNCC3)cc12 [Example 46, 3-[(4-fluorophenyl)sulfonyl]-N-piperidin-4-yl-1H-indazol-5-amine]	8.00 to 11.00
CC(C)c1ccc(S(=O)(=O)c2n[nH]c3ccc(NC4CCNCC4)cc23)cc1 [Example 47, 3-[(4-isopropylphenyl)sulfonyl]-N-piperidin-4-yl-1H-indazol-5-amine]	8.00 to 11.00
O=S(=O)(c1ccc(C(F)(F)F)cc1)c1n[nH]c2ccc(NC3CCNCC3)cc12 [Example 48, N-piperidin-4-yl-3-{[4-(trifluoromethyl)phenyl]sulfonyl}-1H-indazol-5-amine]	8.00 to 11.00
O=S(=O)(c1ccccc1)c1n[nH]c2ccc(NC3CCNCC3)cc12 [Example 49, 3-(phenylsulfonyl)-N-piperidin-4-yl-1H-indazol-5-amine]	8.00 to 11.00
COc1ccc(S(=O)(=O)c2n[nH]c3ccc(NC4CCNCC4)cc23)cc1 [Example 50, 3-[(4-methoxyphenyl)sulfonyl]-N-piperidin-4-yl-1H-indazol-5-amine]	8.00 to 11.00
Cc1cccc(S(=O)(=O)c2n[nH]c3ccc(NC4CCNCC4)cc23)c1 [Example 51, 3-[(3-methylphenyl)sulfonyl]-N-piperidin-4-yl-1H-indazol-5-amine]	8.00 to 11.00
O=C(Nc1ccc2c(S(=O)(=O)c3cccc4ccccc34)n[nH]c2c1)C1CCNCC1 [Example 53, N-[3-(1-Naphthylsulfonyl)-1H-indazol-6-yl]piperidine-4-carboxamide Dihydrochloride]	7.46 to 7.59
O=C(Nc1cccc2c(S(=O)(=O)c3cccc4ccccc34)n[nH]c12)C1CCCNC1 (stereo not drawn) [Example 55, N-[3-(1-Naphthylsulfonyl)-1H-indazol-7-yl]piperidine-3-carboxamide Dihydrochloride]	8.00 to 11.00

The next lines start with the values.

pKi	SMILES
7.60 to 7.96	O=S(=O)(c1cccc2ccccc12)c1n[nH]c2ccc(OCC3CCNCC3)cc12 [Example 27, 3-(1-naphthylsulfonyl)-5-(piperidin-4-ylmethoxy)-1H-indazole]
7.35 to 7.44	O=S(=O)(c1cccc2ccccc12)c1n[nH]c2cc(NCC3CCNCC3)ccc12 [Example 35, 3-(1-Naphthylsulfonyl)-N-(piperidin-4-ylmethyl)-1H-indazol-6-amine Dihydrochloride]
7.46 to 7.59	O=S(=O)(c1cccc2ccccc12)c1n[nH]c2c(NC3CCNCC3)cccc12 [Example 36, 3-(1-Naphthylsulfonyl)-N-piperidin-4-yl-1H-indazol-7-amine Dihydrochloride]
< 7.35	O=S(=O)(c1cccc2ccccc12)c1n[nH]c2c(NC3CCCNC3)cccc12 (stereo not drawn) [Example 37, 3-(1-Naphthylsulfonyl)-N-piperidin-3-yl-1H-indazol-7-amine Dihydrochloride]
7.60 to 7.96	O=S(=O)(c1cccc2ccccc12)c1n[nH]c2c(NCC3CCNCC3)cccc12 [Example 38, 3-(1-Naphthylsulfonyl)-N-(piperidin-4-ylmethyl)-1H-indazol-7-amine Dihydrochloride]
8.00 to 11.00	O=S(=O)(c1cccc2ccccc12)c1n[nH]c2cccc(NC3CCNCC3)c12 [Example 39, 3-(1-Naphthylsulfonyl)-N-piperidin-4-yl-1H-indazol-4-amine Dihydrochloride]
8.00 to 11.00	O=S(=O)(c1cccc2ccccc12)c1n[nH]c2cccc(NC3CCCNC3)c12 (stereo not drawn) [Example 40, 3-(1-Naphthylsulfonyl)-N-piperidin-3-yl-1H-indazol-4-amine Dihydrochloride]
8.00 to 11.00	O=S(=O)(c1cccc2ccccc12)c1n[nH]c2cccc(NCC3CCNCC3)c12 [Example 41, 3-(1-Naphthylsulfonyl)-N-(piperidin-4-ylmethyl)-1H-indazol-4-amine Dihydrochloride]
8.00 to 11.00	O=C(Nc1ccc2[nH]nc(S(=O)(=O)c3cccc4ccccc34)c2c1)C1CCNCC1 [Example 52, N-[3-(1-Naphthylsulfonyl)-1H-indazol-5-yl]piperidine-4-carboxamide Hydrochloride]
7.46 to 7.59	O=C(Nc1cccc2c(S(=O)(=O)c3cccc4ccccc34)n[nH]c12)C1CCNCC1 [Example 54, N-[3-(1-Naphthylsulfonyl)-1H-indazol-7-yl]piperidine-4-carboxamide Dihydrochloride]
